Results taken from patent publication US12275731B2, “Azaindole inhibitors of wild-type and mutant forms of LRRK2” (DANA-FARBER CANCER INSTITUTE, INC., priority 2018, dated 2025).

Experiments:
Assay in all cases: KinomeScan profiling
Assay type in all cases: binding
CLK1 = CLK1 (Homo sapiens, UniProt P49759); settings: CLK1, 1 μM; read-out: % control
Procedure, shortened: (§1)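 The panel spans 468 kinases, and each inventive compound was applied at 1 μM from DMSO. Lower % control means stronger binding; the activity cut-off is set at less than 35%.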

DMPK = target: T1, DMPK (Homo sapiens, UniProt Q09013); settings: read-out: % control
T1 sequence (Q09013 1-629): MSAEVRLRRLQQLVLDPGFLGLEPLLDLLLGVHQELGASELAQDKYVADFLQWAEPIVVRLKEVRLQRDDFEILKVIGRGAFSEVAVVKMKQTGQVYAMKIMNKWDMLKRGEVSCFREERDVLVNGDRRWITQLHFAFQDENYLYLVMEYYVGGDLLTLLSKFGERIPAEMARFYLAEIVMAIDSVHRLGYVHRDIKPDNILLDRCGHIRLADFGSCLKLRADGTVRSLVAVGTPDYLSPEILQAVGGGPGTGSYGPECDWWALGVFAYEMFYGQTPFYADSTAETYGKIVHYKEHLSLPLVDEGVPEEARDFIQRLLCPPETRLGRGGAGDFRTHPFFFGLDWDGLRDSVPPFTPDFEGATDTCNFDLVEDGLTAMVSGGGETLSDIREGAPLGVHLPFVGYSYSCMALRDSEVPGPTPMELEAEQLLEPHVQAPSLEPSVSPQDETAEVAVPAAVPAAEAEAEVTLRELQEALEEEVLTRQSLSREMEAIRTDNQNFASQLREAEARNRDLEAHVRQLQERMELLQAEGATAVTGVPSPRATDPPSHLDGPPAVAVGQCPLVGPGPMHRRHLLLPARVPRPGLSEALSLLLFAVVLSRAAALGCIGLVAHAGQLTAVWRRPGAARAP
Procedure, shortened: as §1

GCN2(Kin.Dom.2, S808G) = target: T2, GCN2(Kin.Dom.2, S808G) (Homo sapiens, UniProt Q9P2K8, S808G); settings: read-out: % control
T2 construct: GCN2(Kin.Dom.2, S808G)
T2 sequence (Q9P2K8 590-1001 S808G limits assumed): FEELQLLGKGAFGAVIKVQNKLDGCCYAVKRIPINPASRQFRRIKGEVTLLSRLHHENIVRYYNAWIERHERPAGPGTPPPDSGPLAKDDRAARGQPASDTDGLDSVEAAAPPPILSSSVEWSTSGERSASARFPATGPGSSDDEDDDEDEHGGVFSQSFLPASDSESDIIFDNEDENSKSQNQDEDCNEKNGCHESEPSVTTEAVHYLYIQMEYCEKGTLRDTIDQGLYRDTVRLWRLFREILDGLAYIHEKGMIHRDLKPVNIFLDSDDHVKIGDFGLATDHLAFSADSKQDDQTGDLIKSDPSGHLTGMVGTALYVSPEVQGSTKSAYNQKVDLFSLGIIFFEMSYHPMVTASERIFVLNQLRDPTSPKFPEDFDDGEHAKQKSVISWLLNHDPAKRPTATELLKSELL
Procedure, shortened: as §1

KIT(A829P) = target: T3, KIT(A829P) (Homo sapiens, UniProt P10721, A829P); settings: read-out: % control
T3 construct: purchased KinomeScan®
Procedure, shortened: as §1

MAP3K4 = MAP3K4 (Homo sapiens, UniProt Q9Y6R4); settings: MAP3K4, 1 μM; read-out: % control
Procedure, shortened: as §1

PLK1 = PLK1 (Homo sapiens, UniProt P53350); settings: PLK1, 1 μM; read-out: % control
Procedure, shortened: as §1

RIPK1 = target: T4, RIPK1 (Homo sapiens, UniProt Q13546); settings: RIPK1, 1 μM; read-out: % control
T4 sequence (Q13546 1-671): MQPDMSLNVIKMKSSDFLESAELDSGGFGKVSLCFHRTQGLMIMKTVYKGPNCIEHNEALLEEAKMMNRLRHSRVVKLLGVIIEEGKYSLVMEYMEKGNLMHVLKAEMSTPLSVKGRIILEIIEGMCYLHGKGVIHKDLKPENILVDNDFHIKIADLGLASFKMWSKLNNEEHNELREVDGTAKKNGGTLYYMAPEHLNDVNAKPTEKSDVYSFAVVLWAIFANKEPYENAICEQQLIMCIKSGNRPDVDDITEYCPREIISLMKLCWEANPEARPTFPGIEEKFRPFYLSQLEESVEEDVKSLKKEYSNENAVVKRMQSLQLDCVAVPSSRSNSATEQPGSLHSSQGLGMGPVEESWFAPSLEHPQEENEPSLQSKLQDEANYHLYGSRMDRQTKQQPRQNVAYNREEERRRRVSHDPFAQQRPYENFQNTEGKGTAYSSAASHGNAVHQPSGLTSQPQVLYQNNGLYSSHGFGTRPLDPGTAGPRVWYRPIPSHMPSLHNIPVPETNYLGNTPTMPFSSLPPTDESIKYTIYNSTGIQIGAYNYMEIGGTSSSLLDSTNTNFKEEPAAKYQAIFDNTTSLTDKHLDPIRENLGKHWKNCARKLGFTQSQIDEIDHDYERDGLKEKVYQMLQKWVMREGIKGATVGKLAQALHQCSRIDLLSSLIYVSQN
Procedure, shortened: as §1

SGK = target: T5, SGK (Homo sapiens, UniProt O00141); settings: read-out: % control
T5 construct: purchased KinomeScan® (panel service)
T5 sequence (O00141 1-431): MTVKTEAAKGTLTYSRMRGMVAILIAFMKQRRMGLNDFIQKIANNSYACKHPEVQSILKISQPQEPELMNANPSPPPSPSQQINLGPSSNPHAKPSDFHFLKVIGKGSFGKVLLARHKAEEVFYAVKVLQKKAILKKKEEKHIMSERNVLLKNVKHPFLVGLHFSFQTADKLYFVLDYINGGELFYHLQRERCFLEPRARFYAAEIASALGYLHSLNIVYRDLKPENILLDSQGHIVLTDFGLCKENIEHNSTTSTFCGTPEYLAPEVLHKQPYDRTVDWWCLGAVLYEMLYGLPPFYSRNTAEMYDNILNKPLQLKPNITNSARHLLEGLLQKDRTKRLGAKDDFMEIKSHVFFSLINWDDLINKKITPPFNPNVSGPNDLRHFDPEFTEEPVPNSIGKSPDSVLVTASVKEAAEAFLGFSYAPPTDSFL
Procedure, shortened: as §1

TNK2 = TNK2 (Homo sapiens, UniProt Q07912); settings: TNK2, 1 μM; read-out: % control
Procedure, shortened: as §1

Sequence of MAP3K4 (Q9Y6R4 whole entry): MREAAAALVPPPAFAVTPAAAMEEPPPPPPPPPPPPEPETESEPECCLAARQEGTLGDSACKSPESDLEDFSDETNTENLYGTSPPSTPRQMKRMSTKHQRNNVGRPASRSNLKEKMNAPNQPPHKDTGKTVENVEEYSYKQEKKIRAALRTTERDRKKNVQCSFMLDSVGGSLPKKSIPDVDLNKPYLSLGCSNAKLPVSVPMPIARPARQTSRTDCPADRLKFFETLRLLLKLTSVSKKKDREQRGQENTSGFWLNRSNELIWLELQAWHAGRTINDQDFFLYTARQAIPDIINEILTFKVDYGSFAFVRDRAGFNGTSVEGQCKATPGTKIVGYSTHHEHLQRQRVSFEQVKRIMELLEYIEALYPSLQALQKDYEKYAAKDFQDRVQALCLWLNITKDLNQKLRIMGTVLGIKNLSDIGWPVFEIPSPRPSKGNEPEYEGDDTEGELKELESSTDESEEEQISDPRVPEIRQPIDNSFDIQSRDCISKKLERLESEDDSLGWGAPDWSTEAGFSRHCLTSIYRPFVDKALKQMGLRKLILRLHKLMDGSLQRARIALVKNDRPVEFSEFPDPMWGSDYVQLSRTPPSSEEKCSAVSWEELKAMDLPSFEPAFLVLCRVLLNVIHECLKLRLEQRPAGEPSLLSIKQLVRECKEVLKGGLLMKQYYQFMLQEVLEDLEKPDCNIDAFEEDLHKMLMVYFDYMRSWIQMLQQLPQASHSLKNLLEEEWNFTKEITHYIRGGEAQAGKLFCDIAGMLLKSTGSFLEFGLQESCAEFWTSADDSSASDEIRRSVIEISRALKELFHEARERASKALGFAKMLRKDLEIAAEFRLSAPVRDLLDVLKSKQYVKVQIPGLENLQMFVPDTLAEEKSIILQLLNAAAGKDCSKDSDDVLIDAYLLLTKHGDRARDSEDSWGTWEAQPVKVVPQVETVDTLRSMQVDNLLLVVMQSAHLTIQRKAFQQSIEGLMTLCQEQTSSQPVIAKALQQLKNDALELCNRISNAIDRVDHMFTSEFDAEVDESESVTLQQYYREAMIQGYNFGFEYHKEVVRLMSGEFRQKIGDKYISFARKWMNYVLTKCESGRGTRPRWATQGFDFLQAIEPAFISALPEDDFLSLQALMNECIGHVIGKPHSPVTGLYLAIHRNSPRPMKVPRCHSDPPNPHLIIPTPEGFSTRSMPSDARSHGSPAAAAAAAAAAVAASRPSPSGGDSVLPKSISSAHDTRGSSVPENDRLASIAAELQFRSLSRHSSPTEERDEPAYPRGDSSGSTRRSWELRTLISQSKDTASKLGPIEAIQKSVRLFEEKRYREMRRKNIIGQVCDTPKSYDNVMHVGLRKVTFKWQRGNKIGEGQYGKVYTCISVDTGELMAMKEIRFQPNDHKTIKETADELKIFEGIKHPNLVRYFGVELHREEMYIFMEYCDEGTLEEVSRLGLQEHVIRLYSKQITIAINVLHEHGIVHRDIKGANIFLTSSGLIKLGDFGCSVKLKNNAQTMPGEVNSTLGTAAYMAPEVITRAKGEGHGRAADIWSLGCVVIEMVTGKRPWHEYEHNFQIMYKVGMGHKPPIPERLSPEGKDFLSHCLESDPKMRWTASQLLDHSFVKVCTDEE
Sequence of CLK1 (P49759 whole entry): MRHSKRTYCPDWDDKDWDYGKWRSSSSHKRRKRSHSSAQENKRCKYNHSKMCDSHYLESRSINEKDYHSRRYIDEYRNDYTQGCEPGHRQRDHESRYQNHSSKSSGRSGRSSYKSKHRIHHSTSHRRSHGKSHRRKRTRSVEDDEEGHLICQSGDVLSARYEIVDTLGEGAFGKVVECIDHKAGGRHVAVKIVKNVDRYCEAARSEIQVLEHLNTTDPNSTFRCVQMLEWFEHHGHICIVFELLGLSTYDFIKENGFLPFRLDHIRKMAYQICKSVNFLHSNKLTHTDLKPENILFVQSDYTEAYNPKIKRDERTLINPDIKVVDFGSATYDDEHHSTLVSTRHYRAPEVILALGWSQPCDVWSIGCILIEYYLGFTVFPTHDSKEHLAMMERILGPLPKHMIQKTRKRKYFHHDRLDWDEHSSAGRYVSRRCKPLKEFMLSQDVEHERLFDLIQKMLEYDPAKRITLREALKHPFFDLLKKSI
Sequence of PLK1 (P53350 whole entry): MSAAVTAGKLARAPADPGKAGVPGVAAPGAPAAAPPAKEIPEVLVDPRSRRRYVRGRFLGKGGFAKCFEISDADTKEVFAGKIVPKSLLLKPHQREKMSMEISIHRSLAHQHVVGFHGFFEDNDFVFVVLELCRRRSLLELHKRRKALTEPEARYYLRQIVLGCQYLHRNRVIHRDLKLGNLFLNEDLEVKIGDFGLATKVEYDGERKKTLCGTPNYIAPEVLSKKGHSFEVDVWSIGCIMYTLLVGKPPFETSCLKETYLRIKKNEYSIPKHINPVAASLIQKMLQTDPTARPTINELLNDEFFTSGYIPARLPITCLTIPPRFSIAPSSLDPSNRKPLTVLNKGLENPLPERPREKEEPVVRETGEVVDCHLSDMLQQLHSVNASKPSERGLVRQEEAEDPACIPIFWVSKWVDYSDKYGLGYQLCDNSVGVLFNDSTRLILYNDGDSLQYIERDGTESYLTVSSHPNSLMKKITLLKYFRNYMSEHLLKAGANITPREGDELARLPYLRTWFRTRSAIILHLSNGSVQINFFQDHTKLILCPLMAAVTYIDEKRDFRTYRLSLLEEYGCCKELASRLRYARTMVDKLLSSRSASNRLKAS
T3 sequence (P10721 26-976 A829P): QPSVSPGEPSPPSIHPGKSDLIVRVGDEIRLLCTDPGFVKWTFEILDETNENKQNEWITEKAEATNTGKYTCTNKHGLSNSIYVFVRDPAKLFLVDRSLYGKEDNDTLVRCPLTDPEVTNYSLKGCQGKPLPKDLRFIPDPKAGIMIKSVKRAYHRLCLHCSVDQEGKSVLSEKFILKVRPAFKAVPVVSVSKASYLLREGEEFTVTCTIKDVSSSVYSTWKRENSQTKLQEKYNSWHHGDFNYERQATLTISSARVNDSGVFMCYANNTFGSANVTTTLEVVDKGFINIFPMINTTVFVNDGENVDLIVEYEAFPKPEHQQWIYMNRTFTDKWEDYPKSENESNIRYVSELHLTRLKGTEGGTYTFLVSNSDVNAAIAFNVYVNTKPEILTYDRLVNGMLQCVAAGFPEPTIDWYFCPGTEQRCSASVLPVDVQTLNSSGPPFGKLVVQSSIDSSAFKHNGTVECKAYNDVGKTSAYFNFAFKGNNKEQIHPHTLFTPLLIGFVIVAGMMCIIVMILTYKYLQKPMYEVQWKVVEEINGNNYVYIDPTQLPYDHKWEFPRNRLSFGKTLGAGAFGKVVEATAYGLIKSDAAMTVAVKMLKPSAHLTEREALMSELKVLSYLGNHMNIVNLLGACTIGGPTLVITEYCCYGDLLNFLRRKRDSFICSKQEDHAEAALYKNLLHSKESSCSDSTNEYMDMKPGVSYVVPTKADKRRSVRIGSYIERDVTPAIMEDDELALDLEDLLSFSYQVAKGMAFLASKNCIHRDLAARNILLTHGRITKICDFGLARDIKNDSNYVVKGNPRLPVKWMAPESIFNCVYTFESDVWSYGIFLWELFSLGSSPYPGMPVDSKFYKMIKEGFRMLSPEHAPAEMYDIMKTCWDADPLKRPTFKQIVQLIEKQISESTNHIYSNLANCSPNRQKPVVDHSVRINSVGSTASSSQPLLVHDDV
Sequence of TNK2 (Q07912 whole entry): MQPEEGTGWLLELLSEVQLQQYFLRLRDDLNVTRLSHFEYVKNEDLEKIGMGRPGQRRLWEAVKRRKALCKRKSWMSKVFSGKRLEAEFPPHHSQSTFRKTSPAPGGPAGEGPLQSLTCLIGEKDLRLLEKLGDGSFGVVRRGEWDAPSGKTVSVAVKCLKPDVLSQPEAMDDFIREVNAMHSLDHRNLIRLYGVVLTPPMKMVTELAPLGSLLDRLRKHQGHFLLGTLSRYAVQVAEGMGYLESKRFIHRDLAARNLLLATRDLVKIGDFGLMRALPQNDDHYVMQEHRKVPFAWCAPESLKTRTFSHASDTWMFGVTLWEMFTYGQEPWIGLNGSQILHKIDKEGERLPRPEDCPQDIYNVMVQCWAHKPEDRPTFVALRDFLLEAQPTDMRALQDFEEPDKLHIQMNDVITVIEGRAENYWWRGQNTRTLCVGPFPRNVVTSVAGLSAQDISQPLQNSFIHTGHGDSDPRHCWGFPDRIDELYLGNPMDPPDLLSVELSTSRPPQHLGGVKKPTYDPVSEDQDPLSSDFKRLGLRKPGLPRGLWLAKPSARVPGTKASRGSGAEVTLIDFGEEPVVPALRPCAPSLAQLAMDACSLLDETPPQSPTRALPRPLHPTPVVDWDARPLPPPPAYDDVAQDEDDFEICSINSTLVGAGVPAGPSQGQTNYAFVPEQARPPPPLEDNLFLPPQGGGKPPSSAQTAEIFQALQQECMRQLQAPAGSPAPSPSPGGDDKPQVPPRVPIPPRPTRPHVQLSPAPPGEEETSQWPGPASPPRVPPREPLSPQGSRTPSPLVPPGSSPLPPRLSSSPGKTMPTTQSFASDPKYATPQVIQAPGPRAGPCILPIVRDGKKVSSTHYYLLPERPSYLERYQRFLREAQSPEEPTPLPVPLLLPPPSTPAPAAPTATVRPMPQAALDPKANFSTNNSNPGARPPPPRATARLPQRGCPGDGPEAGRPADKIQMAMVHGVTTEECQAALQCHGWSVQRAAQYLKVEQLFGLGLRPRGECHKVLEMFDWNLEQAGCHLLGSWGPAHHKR

| Compound | remaining binding at 1 µM (CLK1) [%] | remaining binding at 1 µM (DMPK) [%] | remaining binding at 1 µM (GCN2(Kin.Dom.2, S808G)) [%] | remaining binding at 1 µM (KIT(A829P)) [%] | remaining binding at 1 µM (MAP3K4) [%] | remaining binding at 1 µM (PLK1) [%] | remaining binding at 1 µM (RIPK1) [%] | remaining binding at 1 µM (SGK) [%] | remaining binding at 1 µM (TNK2) [%] |
| --- | --- | --- | --- | --- | --- | --- | --- | --- | --- |
| CNc1c(-c2cnn([C@H]3CCN(C(C)=O)C[C@@H]3F)c2)cnc2[nH]cc(Cl)c12 [Compound 77, 1-((3S,4S)-4-(4-(3-chloro-4-(methylamino)-1H-pyrrolo[2,3-b]pyridin-5-yl)-1H-pyrazol-1-yl)-3-fluoropiperidin-1-yl)ethan-1-one] | 84 | 36 | 34 | 46 | 91 | 65 | 19 | 17 | 100 |
| O=C(c1ccc(-c2cnc3[nH]cc(Cl)c3c2NC2CCCC2)cc1)N1CCC(N2CCOCC2)CC1 [Compound 101, (4-(3-chloro-4-(cyclopentylamino)-1H-pyrrolo[2,3-b]pyridin-5-yl)phenyl)(4-morpholinopiperidin-1-yl)methanone] | 59 | 52 | 100 | 100 | 71 | 98 | 47 | 86 | 98 |
| CNc1c(-c2ccc(C(=O)N3CCC(N4CCOCC4)CC3)cc2)cnc2[nH]cc(Cl)c12 [Compound 96, (4-(3-chloro-4-(methylamino)-1H-pyrrolo[2,3-b]pyridin-5-yl)phenyl)(4-morpholinopiperidin-1-yl)methanone] | 33 | 36 | 54 | 53 | 68 | 64 | 44 | 7.3 | 94 |
